Key:
[1] = test system: rat MES model; conditions: cited from earlier work
[2] = test system: mechanical hyperalgesia in streptozotocin (STZ)-induced diabetic neuropathy; test: streptozotocin-induced diabetic neuropathy, paw pressure test; format: in vivo, rat; conditions: 100 mg/kg p.o.
Method: The objective of this study was to assess the antinociceptive effects of CHF 3381 (25, 50 and 100 mg/kg p.o.) and gabapentin (100 mg/kg p.o) on mechanical hyperalgesia in streptozotocin (STZ)-induced diabetic neuropathy in rats. Diabetes was induced by intraperitoneal injection of STZ (75 mg/kg), and 23 days later its presence was confirmed by measuring of tail vein blood glucose levels and only rats with […] were included in the study.
After 25 days, distilled water, CHF3381 and gabapentin were administered 60 minutes before pain measurement. The nociceptive threshold was evaluated in all groups using a mechanical nociceptive stimulation (paw pressure test).
An increasing pressure (grams of contact pressure) was applied onto the both hind paws of the animal until a nociceptive reaction (vocalisation or paw withdrawal) was determined. The results, expressed as the percentage variation of the nociceptive threshold calculated respect the mean value of the vehicle-treated diabetic group, are reported in Table 2.

[3] = test system: formalin-induced licking and flinching; test: mouse formalin test, 9 day treatment (tolerance); format: in vivo, mice
Method: The mice paw formalin test was performed as described by Wheeler-Aceto et al. (Psychopharmacology 104:35-44, 1991). Briefly, the day before the formalin injection, mice were placed individually into clear plastic cylinders for 30 minutes of adaptation. The day of testing 20 μl of 1% formalin was injected into the plantar surface of the left hind paw and the animals were again placed into the plastic cylinder for the behavioural observation. The amount of time, in seconds, the animals spent licking and flinching (L/F) the injected paw for the first 5 min (early phase), and then from 10 to 40 min(late phase) after formalin injection, was used as measurement of intensity of pain. CHF 3381 10-100 mg/kg i.p. and 25-200 mg/kg p.o. or the corresponding vehicles, were administered 15 and 30 min before formalin injection, respectively.
Moreover, the formalin test was used to examine whether tolerance develops with respect to the antihyperalgesic effect of CHF 3381 after chronic treatment in comparison with the standard opioid morphine. Briefly, mice were divided randomly into five groups (12 mice per group) and administered once daily for 8 days as follows: three groups with saline i.p., one group with CHF 3381 60 mg/kg i.p. and one group with morphine 20 mg/kg i.p. On ninth day these groups were treated in following way: one saline pre-treated group was treated with saline i.p. (g1); two saline pre-treated group were treated with CHF 3381 30 mg/kg i.p. (g2) and with morphine 6 mg/kg i.p. (g3), respectively; the group pre-treated with CHF 3381 60 mg/kg was treated with CHF 3381 30 mg/kg i.p. (g4) and the group pre-treated with morphine 20 mg/kg was treated with morphine 6 mg/kg i.p.(g5), a dose that was previously shown to be active in the formalin test. CHF 3381 and morphine were administered 15 and 30 min before formalin injection, respectively.

[4] = G3: 6 mg/kg i.p. on ninth day after 8 days saline
[5] = G5: 6 mg/kg i.p. on ninth day after 8 days morphine 20 mg/kg i.p.

CC(NC1Cc2ccccc2C1)C(N)=O.Cl (stereo not shown) [2-(2-indanylamino)-propanamide hydrochloride]
anti-convulsivant activity [1]: anti-convulsivant activity

Cl.NC(=O)C(CO)NC1Cc2ccccc2C1 (stereo not shown) [3-hydroxy-2-(2-indanylamino)-propanamide hydrochloride]
anti-convulsivant activity [1]: anti-convulsivant activity

NCC1(CC(=O)O)CCCCC1 [Gabapentin, gabapentin, reference compound]
Nociceptive threshold ([2]; 60 minutes before measurement): 229.2 ± 32.3 g
% variation of the nociceptive threshold ([2]; vs vehicle-treated diabetic group): 68%

CN1CC[C@]23c4c5ccc(O)c4O[C@H]2[C@@H](O)C=C[C@H]3[C@H]1C5 [Morphine, morphine, reference compound]
Early phase [3, 4]: 52 ± 15 s
Late phase [3, 4]: 91 ± 21 s
Early phase [3, 5]: 95 ± 9 s
Late phase [3, 5]: 175 ± 22 s
antihyperalgesic action after chronic treatment (tolerance) ([3]; once daily for 8 days, test on ninth day): failed to show such actions

CN(CC(N)=O)C1Cc2ccccc2C1.Cl [N-2(indanyl)-N-methyl glicinamide hydrochloride]
anti-convulsivant activity [1]: anti-convulsivant activity
